Test results published in patent US10787452B2 (Vertex Pharmaceuticals Incorporated, priority 2012, dated 2020).

Tested on: HCT116 colorectal cancer cells
Test: Cisplatin sensitization assay (96 h cell viability MTS);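 further: compound concentration needed to lower the Cisplatin-alone IC50 by a set fold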
Assay type: cell-based
Conditions: 96 h MTS, compound plus Cisplatin
Protocol: Compounds can be screened for their ability to sensitize HCT116 colorectal cancer cells to Cisplatin using a 96 h cell viability (MTS) assay. […] Compounds and Cisplatin are then both added simultaneously to the cell media in 2-fold serial dilutions from a top final concentration of 10 μM as a full matrix of concentrations in a final cell volume of 200 μl, and the cells are then incubated at 37° C. in 5% CO2. After 96 h, 40 μl of MTS reagent (Promega G358a) is added to each well and the cells are incubated for 1 h at 37° C. in 5% CO2.

| Compound | Cisplatin Sensitization Assay |
| --- | --- |
| Nc1nn2cc(F)cnc2c1C(=O)Nc1cnccc1C1CCN(C2COC2)CC1 [I-C-10, 2-amino-6-fluoro-N-(4-(1-(oxetan-3-yl)piperidin-4-yl)pyridin-3-yl)pyrazolo[1,5-a]pyrimidine-3-carboxamide] | +++ (Compounds with a Cisplatin sensitization value of <0.02 μM are marked with “+++.”) |
| Nc1nn2cc(Cl)cnc2c1C(=O)Nc1cnccc1C1CCN(C2COC2)CC1 [I-C-11, 2-amino-6-chloro-N-(4-(1-(oxetan-3-yl)piperidin-4-yl)pyridin-3-yl)pyrazolo[1,5-a]pyrimidine-3-carboxamide] | +++ (Compounds with a Cisplatin sensitization value of <0.02 μM are marked with “+++.”) |
| Nc1nn2cc(F)cnc2c1C(=O)Nc1cncc(F)c1C1=CCN(C2COC2)CC1 [I-C-12, 2-amino-6-fluoro-N-(5-fluoro-1′-(oxetan-3-yl)-1′,2′,3′,6′-tetrahydro-[4,4′-bipyridin]-3-yl)pyrazolo[1,5-a]pyrimidine-3-carboxamide] | +++ (Compounds with a Cisplatin sensitization value of <0.02 μM are marked with “+++.”) |
| Nc1nn2cc(F)cnc2c1C(=O)Nc1cncc(F)c1C1CCN(C2COC2)CC1 [I-C-13, 2-amino-6-fluoro-N-(5-fluoro-4-(1-(oxetan-3-yl)piperidin-4-yl)pyridin-3-yl)pyrazolo[1,5-a]pyrimidine-3-carboxamide] | ++ (Compounds with a Cisplatin sensitization value >0.02 μM but <0.2 μM are marked with “++.”) |
| CN1CCC(c2c(F)cncc2NC(=O)c2c(N)nn3cc(F)cnc23)CC1 [I-C-14, 2-amino-6-fluoro-N-(5-fluoro-4-(1-methylpiperidin-4-yl)pyridin-3-yl)pyrazolo[1,5-a]pyrimidine-3-carboxamide] | + (Compounds with a Cisplatin sensitization value >0.2 μM but <5 μM are marked with “+.”) |
| Nc1nn2cc(F)cnc2c1C(=O)Nc1cnccc1-c1cccnc1 [I-C-15, N-([3,4′-bipyridin]-3′-yl)-2-amino-6-fluoropyrazolo[1,5-a]pyrimidine-3-carboxamide] | ++ (Compounds with a Cisplatin sensitization value >0.02 μM but <0.2 μM are marked with “++.”) |
| CN1CCC(C(=O)N2CCC(c3ccncc3NC(=O)c3c(N)nn4cc(F)cnc34)CC2)CC1 [I-C-16, 2-amino-6-fluoro-N-(4-(1-(1-methylpiperidine-4-carbonyl)piperidin-4-yl)pyridin-3-yl)pyrazolo[1,5-a]pyrimidine-3-carboxamide] | + (Compounds with a Cisplatin sensitization value >0.2 μM but <5 μM are marked with “+.”) |
| CN1CCN(C(=O)N2CCC(c3ccncc3NC(=O)c3c(N)nn4cc(F)cnc34)CC2)CC1 [I-C-17, 2-amino-6-fluoro-N-(4-(1-(4-methylpiperazine-1-carbonyl)piperidin-4-yl)pyridin-3-yl)pyrazolo[1,5-a]pyrimidine-3-carboxamide] | ++ (Compounds with a Cisplatin sensitization value >0.02 μM but <0.2 μM are marked with “++.”) |
| Nc1nn2cc(F)cnc2c1C(=O)Nc1cnccc1C1CCN(C(=O)C23CCN(CC2)CC3)CC1 [I-C-18, 2-amino-6-fluoro-N-(4-(1-(quinuclidine-4-carbonyl)piperidin-4-yl)pyridin-3-yl)pyrazolo[1,5-a]pyrimidine-3-carboxamide] | + (Compounds with a Cisplatin sensitization value >0.2 μM but <5 μM are marked with “+.”) |
| CN1CCN(C(=O)c2ccc(-c3ccncc3NC(=O)c3c(N)nn4cc(F)cnc34)cn2)CC1 [I-C-19, 2-amino-6-fluoro-N-(6-(4-methylpiperazine-1-carbonyl)-[3,4′-bipyridin]-3′-yl)pyrazolo[1,5-a]pyrimidine-3-carboxamide] | ++ (Compounds with a Cisplatin sensitization value >0.02 μM but <0.2 μM are marked with “++.”) |
| Cc1ncccc1-c1ccncc1NC(=O)c1c(N)nn2cc(F)cnc12 [I-C-20, 2-amino-6-fluoro-N-(2-methyl-[3,4′-bipyridin]-3′-yl)pyrazolo[1,5-a]pyrimidine-3-carboxamide] | +++ (Compounds with a Cisplatin sensitization value of <0.02 μM are marked with “+++.”) |
| CN1CCN(c2ccc(-c3ccncc3NC(=O)c3c(N)nn4cc(F)cnc34)cn2)CC1 [I-C-21, 2-amino-6-fluoro-N-(6-(4-methylpiperazin-1-yl)-[3,4′-bipyridin]-3′-yl)pyrazolo[1,5-a]pyrimidine-3-carboxamide] | +++ (Compounds with a Cisplatin sensitization value of <0.02 μM are marked with “+++.”) |
| Cc1ccc(-c2ccncc2NC(=O)c2c(N)nn3cc(F)cnc23)cn1 [I-C-22, 2-amino-6-fluoro-N-(6-methyl-[3,4′-bipyridin]-3′-yl)pyrazolo[1,5-a]pyrimidine-3-carboxamide] | ++ (Compounds with a Cisplatin sensitization value >0.02 μM but <0.2 μM are marked with “++.”) |
| CN1CCC(c2ccncc2NC(=O)c2c(N)nn3cc(C(C)(C)C#N)cnc23)CC1 [I-C-23, 2-amino-6-(2-cyanopropan-2-yl)-N-(4-(1-methylpiperidin-4-yl)pyridin-3-yl)pyrazolo[1,5-a]pyrimidine-3-carboxamide] | + (Compounds with a Cisplatin sensitization value >0.2 μM but <5 μM are marked with “+.”) |
| Nc1nn2cc(F)cnc2c1C(=O)Nc1cnccc1-c1ccncc1 [I-C-24, N-([4,4′-bipyridin]-3-yl)-2-amino-6-fluoropyrazolo[1,5-a]pyrimidine-3-carboxamide] | +++ (Compounds with a Cisplatin sensitization value of <0.02 μM are marked with “+++.”) |
| CN1CCN(C(=O)c2ccc(-c3ccncc3NC(=O)c3c(N)nn4cc(F)cnc34)cc2)CC1 [I-C-25, 2-amino-6-fluoro-N-(4-(4-(4-methylpiperazine-1-carbonyl)phenyl)pyridin-3-yl)pyrazolo[1,5-a]pyrimidine-3-carboxamide] | +++ (Compounds with a Cisplatin sensitization value of <0.02 μM are marked with “+++.”) |
| Nc1nn2cc(F)cnc2c1C(=O)Nc1cnccc1-c1ccnnc1 [I-C-26, 2-amino-6-fluoro-N-(4-(pyridazin-4-yl)pyridin-3-yl)pyrazolo[1,5-a]pyrimidine-3-carboxamide] | ++ (Compounds with a Cisplatin sensitization value >0.02 μM but <0.2 μM are marked with “++.”) |
| COc1ccc(-c2ccncc2NC(=O)c2c(N)nn3cc(F)cnc23)cn1 [I-C-27, 2-amino-6-fluoro-N-(6-methoxy-[3,4′-bipyridin]-3′-yl)pyrazolo[1,5-a]pyrimidine-3-carboxamide] | ++ (Compounds with a Cisplatin sensitization value >0.02 μM but <0.2 μM are marked with “++.”) |
| Cc1cnccc1-c1ccncc1NC(=O)c1c(N)nn2cc(F)cnc12 [I-C-29, 2-amino-6-fluoro-N-(3′-methyl-[4,4′-bipyridin]-3-yl)pyrazolo[1,5-a]pyrimidine-3-carboxamide] | +++ (Compounds with a Cisplatin sensitization value of <0.02 μM are marked with “+++.”) |
| Cc1ccncc1-c1ccncc1NC(=O)c1c(N)nn2cc(F)cnc12 [I-C-30, 2-amino-6-fluoro-N-(4-methyl-[3,4′-bipyridin]-3′-yl)pyrazolo[1,5-a]pyrimidine-3-carboxamide] | +++ (Compounds with a Cisplatin sensitization value of <0.02 μM are marked with “+++.”) |
